Source: patent US20210113501A1, “METHOD OF ADMINISTERING BETA-HYDROXY-BETA-METHYLBUTYRATE (HMB)” (Metabolic Technologies, Inc., priority 2009, published 2021)

Test: Study 1 hematology (complete blood count)
Type: in vivo, human
Experimental: Study 1 design. For study 1 the subjects reported to the laboratory in the morning following an overnight fast. Before ingestion of one of the supplemental treatments, a flexible sterile polyethylene catheter was inserted into a forearm vein using sterile procedures and a pre-ingestion blood sample was drawn. Subsequent blood samples were taken at 0, 2, 5, 10, 15, 25, 35, 45, 60, 90, 120 and 180 min after ingestion of the treatment. Plasma was separated and samples were stored frozen at −70° C. for analysis of HMB concentration. In addition, a portion of the pre-ingestion and 180 minute blood samples were used for measurements (LabCorp, Kansas City, Mo.) of glucose, uric acid, blood urea nitrogen (BUN), creatinine, sodium, potassium, chloride, carbon dioxide, phosphorous, protein, albumin, globulin, albumin:globulin ratio, total bilirubin, direct bilirubin, alkaline phosphatase, lactate dehydrogenase, aspartate aminotransferase (AST), alanine aminotransferase (ALT), gamma-glutamyl transpeptidase (GGT), iron binding capacity (TIBC), unsaturated iron binding capacity (UIBC), iron, iron saturation, total cholesterol, triglycerides, high density lipoprotein (HDL), low density lipoprotein (LDL), and cholesterol ratio. A complete blood count (CBC) was also performed before and after the 180 min treatment period. Subjects also completed a brief questionnaire to report any physical symptoms (such as nausea, headache, etc) they may have experienced during the experiment.
The data were analyzed using a crossover design with Proc GLM in SAS. (45) For the timed sampling of plasma HMB a repeated measures polynomial model was used. The model included subject, order, and treatment main effects and time by treatment interaction where appropriate. For other parameters Proc GLM was also used with subject, order, and treatment main effects and the p values are reported for the treatment main effect. Statistical significance was determined for p<0.05 and a trend was determined for 0.05<p<0.10.

CC(C)(O)CC(=O)[O-].CC(C)(O)CC(=O)[O-].[Ca+2] [CaHMB, calcium β-hydroxy-β-methylbutryate, reference compound]
Basophils (absolute) (After (180 min)): 0.04 ± 0.0 ×10^3/μL | Basophils, % (After (180 min)): 0.4 ± 0.2% | Eosinophils (absolute) (After (180 min)): 0.1 ± 0.04 ×10^3/μL | Eosinophils, % (After (180 min)): 2.1 ± 0.6% | Hematocrit (After (180 min)): 38.7 ± 1.3% | Hemoglobin (After (180 min)): 13.4 ± 0.5 g/dL | Lymphocytes (absolute) (After (180 min)): 2.1 ± 0.2 ×10^3/μL | Lymphocytes, % (After (180 min)): 34.0 ± 3.4% | MCH (After (180 min)): 31.3 ± 0.6 pg | MCHC (After (180 min)): 34.7 ± 0.2 g/dL | MCV (After (180 min)): 90.4 ± 1.5 fL | Monocytes (absolute) (After (180 min)): 0.5 ± 0.1 ×10^3/μL | Monocytes, % (After (180 min)): 7.4 ± 0.7% | Neutrophils (absolute) (After (180 min)): 3.8 ± 0.7 ×10^3/μL | Neutrophils, % (After (180 min)): 56.1 ± 3.8% | Platelets (After (180 min)): 202.9 ± 16^ ×10^3/μL | RBC (After (180 min)): 4.3 ± 0.2 ×10^6/µL | RDW (After (180 min)): 13.1 ± 0.2% | WBC (After (180 min)): 6.4 ± 0.7 ×10^3/μL | Basophils (absolute) (Before): 0.05 ± 0.0 ×10^3/μL | Basophils, % (Before): 0.5 ± 0.2% | Eosinophils (absolute) (Before): 0.2 ± 0.04 ×10^3/μL | Eosinophils, % (Before): 2.5 ± 0.4% | Hematocrit (Before): 38.3 ± 1.1% | Hemoglobin (Before): 13.3 ± 0.4 g/dL | Lymphocytes (absolute) (Before): 2.5 ± 0.1 ×10^3/μL | Lymphocytes, % (Before): 39.6 ± 2.8% | MCH (Before): 31.2 ± 0.6 pg | MCHC (Before): 34.7 ± 0.1 g/dL | MCV (Before): 90.0 ± 1.5 fL | Monocytes (absolute) (Before): 0.5 ± 0.1 ×10^3/μL | Monocytes, % (Before): 7.1 ± 0.9% | Neutrophils (absolute) (Before): 3.3 ± 0.4 ×10^3/μL | Neutrophils, % (Before): 50.3 ± 3.3% | Platelets (Before): 209.0 ± 14^ ×10^3/μL | RBC (Before): 4.3 ± 0.2 ×10^6/µL | RDW (Before): 13.1 ± 0.2% | WBC (Before): 6.4 ± 0.4 ×10^3/μL | Basophils (absolute) % Change (Before to After): −25.0% | Basophils, % - % Change (Before to After): −25.0% | Eosinophils (absolute) % Change (Before to After): −21.4% | Eosinophils, % - % Change (Before to After): −15.0% | Hematocrit % Change (Before to After): 1.2% | Hemoglobin % Change (Before to After): 1.2% | Lymphocytes (absolute) % Change (Before to After): −15.6% | Lymphocytes, % - % Change (Before to After): −14.2% | MCH % Change (Before to After): 0.3% | MCHC % Change (Before to After): 0.1% | MCV % Change (Before to After): 0.4% | Monocytes (absolute) % Change (Before to After): 8.3% | Monocytes, % - % Change (Before to After): 3.5% | Neutrophils (absolute) % Change (Before to After): 14.5% | Neutrophils, % - % Change (Before to After): 11.7% | Platelets % Change (Before to After): −2.9% | RBC % Change (Before to After): 1.0% | RDW % Change (Before to After): 0.1% | WBC % Change (Before to After): 0.3%
